Laboratory results published in patent US5710151A, “Method of treating urinary bladder dysfunctions” (priority 1996, dated 1998).
Counter-ions that a name gives are not always drawn.

Biological target: muscarinic receptors
Test: inhibition of binding of 3H-oxotremorine-M to muscarinic receptors
Details: 3 nM 3H-oxotremorine-M, rat cerebral cortical membranes, pH 7.4, 15 min, 25° C.; read-out: Inhibition of ^3 H-Oxo
Experimental: The affinity of the compounds for the muscarinic receptors was determined using the non-selective agonist ligand, ^3 H-oxotremorine-M. Birdsdall N. J. M., Hulme E. C., and Burgen A. S. V. "The Character of Muscarinic Receptors in Different Regions of the Rat Brain", 207 Proc. Roy. Soc. 1 (London, Series B, 1980). Each compound was tested to determine the affinity of the compound for the muscarinic receptors using the following procedure.
For in vitro binding, male Sprague-Dawley (Harlan Sprague-Dawley, Indianapolis, Ind.) rats weighing from about 100 to about 150 grams each were sacrificed by decapitation. The brains were quickly removed and the cerebral cortex were dissected from the brain. The cerebral cortex tissue was homogenized in 10 volumes of 0.32M sucrose and […] at about 1000×g. The supernatant was centrifuged at about 12,000×g for about 10 minutes and the resulting pellet was resuspended in 20 mM tris-Cl, pH 7.4. The resuspended pellet was centrifuged again for about 10 minutes at about 50,000×g. The resulting homogenate was preincubated for about 10 minutes at about 25° C. and centrifuged again for about 10 minutes at about 50,000×g. The pellet was resuspended at 1 gram of pellet per 3 ml of buffer and frozen at about -80° C. until used.
The inhibition of binding of ^3 H-oxotremorine-M to muscarinic receptors was determined by mixing the compound of the Example, 3 nM ^3 H-oxotremorine-M (about 87 Ci/mmoles, New England Nuclear, Boston Mass.), and cerebral cortical membranes equivalent to about 10 mg wet weight, which is about 100 μg of cortical membrane protein, in about 1 ml total volume of […] tris-Cl buffer, pH 7.4, containing 1 mM MnCl2. The aforementioned homogenates mixture was incubated for about 15 minutes at about 25° C. and then the homogenates were filtered through glass filters (Whatman, GF/C) with vacuum. The filters were washed 3 times with about 2 ml of cold tris-Cl buffer, and placed in scintillation vials containing about 10 ml of scintillation fluid (Ready Protein+, Beckman, Fullerton, Calif.). Radioactivity trapped on the filters was determined by liquid scintillation spectrometry. Nonspecific binding was determined using 1 μM atropine. The concentration of compound required to inhibit specific binding 50% (IC50) was determined using standardized computer assisted calculations (DeLean, A. et al. Am. J. Physiol., 235, (1978)).

SMILES	IC50 [nM]
CCOc1nsnc1[C@@H]1CN2CCC[C@@H]1C2 (relative stereo) [Compound 19, Exo-6-(3-ethoxy-1,2,5-thiadiazol-4-yl)-1-azabicyclo[3.2.1]octane oxalate]	1.2
CCCCCCSc1nsnc1[C@@H]1CN2CCC[C@@H]1C2 (relative stereo) [Compound 29, Exo-6-(3-hexylthio-1,2,5-thiadiazol-4-yl)-1-azabicyclo[3.2.1]octane oxalate]	1.2
CCCCSc1nsnc1[C@@H]1CN2CCC[C@@H]1C2 (relative stereo) [Compound 30, Exo-6-(3-butylthio-1,2,5-thiadiazol-4-yl)-1-azabicyclo[3.2.1]octane oxalate]	0.4
CCCCCSc1nsnc1[C@@H]1CN2CCC[C@@H]1C2 (relative stereo) [Compound 31, Exo-6-(3-pentylthio-1,2,5-thiadiazol-4-yl)-1-azabicyclo[3.2.1]octane oxalate]	1.8
CCSc1nsnc1[C@@H]1CN2CCC[C@@H]1C2 (relative stereo) [Compound 32, Exo-6-(3-ethylthio-1,2,5-thiadiazol-4-yl)-1-azabicyclo[3.2.1]octane oxalate]	1.3
CCCSc1nsnc1[C@@H]1CN2CCC[C@@H]1C2 (relative stereo) [Compound 58, Exo-6-(3-propylthio-1,2,5-thiadiazol-4-yl)-1-azabicyclo[3.2.1]octane oxalate]	0.8
CCCCCOc1nsnc1[C@@H]1CN2CCC[C@@H]1C2 (relative stereo) [Compound 59, Exo-6-(3-pentyloxy-1,2,5-thiadiazol-4-yl)-1-azabicyclo[3.2.1]octane oxalate]	1
CSc1nsnc1[C@@H]1CN2CCC[C@@H]1C2 (relative stereo) [Compound 74, Exo-6-(3-methylthio-1,2,5-thiadiazol-4-yl)-1-azabicyclo[3.2.1]octane oxalate]	1.4
CC(C)CCCSc1nsnc1[C@@H]1CN2CCC[C@@H]1C2 (relative stereo) [Compound 76, Exo-6-(3-isohexylthio-1,2,5-thiadiazol-4-yl)-1-azabicyclo[3.2.1]octane oxalate]	7.7
CC(C)CCSc1nsnc1[C@@H]1CN2CCC[C@@H]1C2 (relative stereo) [Compound 77, Exo-6-(3-isopentylthio-1,2,5-thiadiazol-4-yl)-1-azabicyclo[3.2.1]octane]	2.7
N#Cc1ccc(CSc2nsnc2[C@@H]2CN3CCC[C@@H]2C3)cc1 (relative stereo) [Compound 82, Exo-6-(3-(4-cyanobenzylthio)-1,2,5-thiadiazol-4-yl)-1-azabicyclo[3.2.1]octane oxalate]	1.3
CCCOc1nsnc1[C@@H]1CN2CCC[C@@H]1C2 (relative stereo) [Compound 119, Exo-6-(3-propoxy-1,2,5-thiadiazol-4-yl)-1-azabicyclo[3.2.1]octane oxalate]	0.9
CCCCOc1nsnc1[C@@H]1CN2CCC[C@@H]1C2 (relative stereo) [Compound 120, Exo-6-(3-butoxy-1,2,5-thiadiazol-4-yl)-1-azabicyclo[3.2.1]octane oxalate]	0.9
CCCCCCOc1nsnc1[C@@H]1CN2CCC[C@@H]1C2 (relative stereo) [Compound 122, Exo-6-(3-hexyloxy-1,2,5-thiadiazol-4-yl)-1-azabicyclo[3.2.1]octane oxalate]	2.1
c1ccc(OCCSc2nsnc2[C@@H]2CN3CCC[C@@H]2C3)cc1 (relative stereo) [Compound 133, Exo-6-(3-(2-phenoxyethylthio)-1,2,5-thiadiazol-4-yl)-1-azabicyclo[3.2.1]octane oxalate]	1.3
CCCCSc1nsnc1C1CN2CCC1CC2 (single isomer, unassigned) [Compound 56, (+) 3-(3-Butylthio-1,2,5-thiadiazol-4-yl)-1-azabicyclo[2.2.2]octane (-)D-tartrate]	0.4
CCOc1nsnc1C1CN2CCC1CC2 (centres unmarked) [Compound 9, 3-(3-Ethoxy-1,2,5-thiadiazol-4-yl)-1-azabicyclo[2.2.2]octane fumarate]	2.1
CCCCSc1nsnc1C1CN2CCC1CC2 (centres unmarked) [Compound 13, 3-(3-Butylthio-1,2,5-thiadiazol-4-yl)-1-azabicyclo[2.2.2]octane fumarate]	1.9

SMILES	IC50 [nM]
CCCCOc1nsnc1C1CN2CCC1CC2 (centres unmarked) [Compound 46, 3-(3-Butoxy-1,2,5-thiadiazol-4-yl)-1-azabicyclo[2.2.2]octane oxalate]	1.6
CCSc1nsnc1C1CN2CCC1CC2 (centres unmarked) [Compound 52, 3-(3-Ethylthio-1,2,5-thiadiazol-4-yl)-1-azabicyclo[2.2.2]octane oxalate]	1.8
CCCSc1nsnc1C1CN2CCC1CC2 (centres unmarked) [Compound 53, 3-(3-Propylthio-1,2,5-thiadiazol-4-yl)-1-azabicyclo[2.2.2]octane oxalate]	0.9
c1ccc(OCCSc2nsnc2C2CN3CCC2CC3)cc1 (centres unmarked) [Compound 102, 3-(3-(2-Phenoxyethylthio)-1,2,5-thiadiazol-4-yl)-1-azabicyclo[2.2.2]octane fumarate]	4.5
N#CCSc1nsnc1C1CN2CCC1CC2 (centres unmarked) [Compound 103, 3-(3-Cyanomethylthio-1,2,5-thiadiazol-4-yl)-1-azabicyclo[2.2.2]octane oxalate]	2.7
c1csc(CCCSc2nsnc2C2CN3CCC2CC3)c1 (centres unmarked) [Compound 104, 3-(3-(3-(2-Thienyl)propylthio)-1,2,5-thiadiazol-4-yl)-1-azabicyclo[2.2.2]octane fumarate]	2.6
Cn1nnnc1SCCCCSc1nsnc1C1CN2CCC1CC2 (centres unmarked) [Compound 106, 3-(3-(1-Methyltetrazol-5-ylthio)butylthio-1,2,5-thiadiazol-4-yl)-1-azabicylo[2.2.2]octane oxalate]	2.8
Cc1nnc(SCCCCSc2nsnc2C2CN3CCC2CC3)s1 (centres unmarked) [Compound 107, oxalate]	1
CCCCSc1nsnc1[C@@H]1CN2CCC[C@@H]1C2 [Compound 111, (5S,6S)-6-(3-butylthio-1,2,5-thiadiazol-4-yl)-1-azabicyclo[3.2.1]octane (+) L-tartrate]	1
CCCCSc1nsnc1[C@H]1CN2CCC[C@H]1C2 [Compound 112, (5R,6R)-6-(3-butylthio-1,2,5-thiadiazol-4-yl)-1-azabicyclo[3.2.1]octane (-) D-tartrate]	0.6
CCCSc1nsnc1[C@H]1CN2CCC[C@H]1C2 [Compound 113, (5R,6R)-6-(3-propylthio-1,2,5-thiadiazol-4-yl)-1-azabicyclo[3.2.1]octane (+) L-tartrate]	0.89
CCCSc1nsnc1[C@@H]1CN2CCC[C@@H]1C2 [Compound 114, (5S,6S)-6-(3-propylthio-1,2,5-thiadiazol-4-yl)-1-azabicyclo[3.2.1]octane (-) D-tartrate]	0.45
FC(F)(F)CCCSc1nsnc1[C@@H]1CN2CCC[C@@H]1C2 [Compound 130, (5S,6S)-6-(3-(4,4,4-trifluoro-1-butylthio)-1,2,5-thiadiazol-4-yl)-1-azabicyclo[3.2.1]octane oxalate]	1.8
CSc1nsnc1C1CN2CCC1CC2 (centres unmarked) [Compound 131, 3-(3-Methylthio-1,2,5-thiadiazol-4-yl)-1-azabicyclo[2.2.2]octane oxalate]	2.8
CC(C)CCCSc1nsnc1[C@H]1CN2CCC[C@H]1C2 [Compound 157, (5R,6R)-6-(3-isohexylthio-1,2,5-thiadiazol-4-yl)-1-azabicyclo[3.2.1]octane (+) L-tartrate]	10
CC(C)CCCSc1nsnc1[C@@H]1CN2CCC[C@@H]1C2 [Compound 158, (5S,6S)-6-(3-isohexylthio-1,2,5-thiadiazol-4-yl)-1-azabicyclo[3.2.1]octane oxalate]	10
FC(F)(F)CCCSc1nsnc1[C@H]1CN2CCC[C@H]1C2 [Compound 167, (5R,6R)-6-(3-(4,4,4-trifluorobutylthio)-1,2,5-thiadiazol-4-yl)-1-azabicyclo[3.2.1]octane oxalate]	0.76
